Counter-ions that a name gives are not always drawn. Like-named read-outs stand apart in the source and are kept apart here.
Key:
CD-1 mice = assay: clonic convulsions in CD-1 mice after intraperitoneal dosing (range finding and main study)
Procedure: Two studies were performed to investigate the relative proconvulsant properties of the two bupropion salts. In the first instance a range finding study was performed to establish the appropriate dose range for the main study. In each study the mice were divided into two dose groups and injected intraperitoneally with either bupropion HCl or bupropion HBr.
A clonic convulsion was defined as a stiffening of the animal followed by jerking movements. The convulsions were classified as mild, moderate and severe according to the following descriptions.
Mild: Head and tail slightly extended and little jerking
Moderate: Head and tail fully extended with some jerking
Severe: Head and tail fully extended with strong jerking
Post-treatment findings recorded included continuous observation for 120 minutes for evidence of clonic convulsions, and intermittent (fixed) observations for 24 hours for other signs, including tonic convulsions, movement, activity, paralysis, gait and evidence of recovery.

mice = assay: Proconvulsant properties of bupropion salts: clonic convulsions in mice; settings: for Mean Number of Convulsions/Mouse / Total Number of convulsions: N=13
Procedure: Number of convulsions and the intensity of the convulsions were recorded.
Mild: Head and tail slightly extended and little jerking; Moderate: Head and tail fully extended with some jerking; Severe: Head and tail fully extended with strong jerking. […] Step 2: To further investigate the patterns of convulsion occurrence using loglinear Poisson regression models. The number of convulsions was analyzed using the loglinear Poisson regression models with formulation, dose, and severity as predictors.

[1] = forced degradation stability study of bupropion salts in vials, 40 degrees C./75% RH, HPLC assay and impurities; settings: for order of stability (assay, % potency): salt plus excipients, 20 days, 40 degrees C./75% RH
[2] = 100 mg/kg i.p., pooled data N = 13/dose group, hydrochloride
[3] = 150 mg/kg i.p., pooled data N = 13/dose group, hydrochloride
[4] = 150 mg/kg, Moderate, hydrochloride
[5] = 150 mg/kg, Severe, hydrochloride
[6] = spiked with IPA/EtOH, closed vials, 32 days

Structure (SMILES): CC(NC(C)(C)C)C(=O)c1cccc(Cl)c1.Cl (racemic) [bupropion hydrochloride, (±)-1-(3-chlorophenyl)-2-[(1,1-dimethylethyl)amino]-1-propanone hydrochloride]
- severity of seizure activity in the initial behavioral study (CD-1 mice; CD-1 mice): more severe
- Mean Number of Convulsions/Mouse, cumulative (mice; 100 mg/kg, All): 0.23
- odds of number of convulsions vs the bupropion hydrobromide group (mice; loglinear Poisson regression, adjusted for dose and severity): 1.41
- In IPA/EtOH, 3-CBZ: order of impurity content [1]: maleate > HBr > HCl > Fumarate
- In IPA/EtOH, 852U77: order of impurity content [1]: fumarate > HBr ≈HCl ≈maleate ≈tosylate
- In IPA/EtOH, Total imp.: order of impurity content [1]: fumarate > maleate > HBr > HCl > tosylate
- In water, 3-CBZ: order of impurity content [1]: HCl > HBr≈maleate≈fumarate
- In water, 852U77: order of impurity content [1]: fumarate > HBr > maleate > HCl
- In water, Total imp.: order of impurity content [1]: fumarate > HBr > HCl > tosylate > maleate
- order of stability (assay, % potency) ([1]; closed vials): HBr>HCl≈tosylate>fumarate>maleate

Structure (SMILES): CC(NC(C)(C)C)C(=O)c1cccc(Cl)c1 (stereo not drawn) [Bupropion HCl, bupropion hydrochloride]
- Mean Number of Convulsions/Mouse (CD-1 mice; 75 mg/kg i.p. (as Bupropion HCl, HBr equimolar), range-finding study, N = 3/dose group): 0
- Mean Intensity of Convulsions/Mouse % of Total: Mild (CD-1 mice; [2]): 0.0 % of Total
- Mean Intensity of Convulsions/Mouse % of Total: Moderate (CD-1 mice; [2]): 33.3 % of Total
- Mean Intensity of Convulsions/Mouse % of Total: Severe (CD-1 mice; [2]): 66.7 % of Total
- Mean Number of Convulsions/Mouse (CD-1 mice; [2]): 0.2
- numbers of mice that had convulsions in the dose group (CD-1 mice; [2]): 2/13
- numbers of mice that had convulsions in the dose group (CD-1 mice; 100 mg/kg i.p., range-finding study, N = 3/dose group): 2/3
- Mean Number of Convulsions/Mouse (CD-1 mice; 100 mg/kg i.p., range-finding study, N = 3/dose group, hydrochloride): 1.0
- Mean Number of Convulsions/Mouse (CD-1 mice; 100 mg/kg i.p., second (main) study, N = 10/dose group, hydrochloride): 0
- numbers of mice that had convulsions in the dose group (CD-1 mice; 150 mg/kg i.p., pooled data N = 13/dose group): 13/13
- Mean Intensity of Convulsions/Mouse % of Total: Mild (CD-1 mice; [3]): 8.8 % of Total
- Mean Intensity of Convulsions/Mouse % of Total: Moderate (CD-1 mice; [3]): 12.2 % of Total
- Mean Intensity of Convulsions/Mouse % of Total: Severe (CD-1 mice; [3]): 79.0 % of Total
- Mean Number of Convulsions/Mouse (CD-1 mice; [3]): 71.0
- numbers of mice that had convulsions in the dose group (CD-1 mice; 150 mg/kg i.p., range-finding study, N = 3/dose group): 3/3
- Mean Number of Convulsions/Mouse (CD-1 mice; 150 mg/kg i.p., range-finding study, N = 3/dose group, hydrochloride): 32.0
- numbers of mice that had convulsions in the dose group (CD-1 mice; 150 mg/kg i.p., second (main) study, N = 10/dose group): 10/10
- Mean Number of Convulsions/Mouse (CD-1 mice; 150 mg/kg i.p., second (main) study, N = 10/dose group, hydrochloride): 82.7
- numbers of mice that had convulsions in the dose group (CD-1 mice; […] i.p., pooled data N = 13/dose group, hydrochloride): 13/13
- numbers of mice that had convulsions in the dose group (CD-1 mice; […] i.p., range-finding study, N = 3/dose group): 3/3
- numbers of mice that had convulsions in the dose group (CD-1 mice; […] i.p., second (main) study, N = 10/dose group, hydrochloride): 10/10
- threshold for tonic convulsions (CD-1 mice; range finding study, i.p., hydrochloride): 100 mg/kg
- Mean Number of Convulsions/Mouse, cumulative (mice; 100 mg/kg, All, hydrochloride): 0.23
- Mean Number of Convulsions/Mouse (mice; 100 mg/kg, Mild, hydrochloride): 0.0
- Total Number of convulsions (mice; 100 mg/kg, Mild, hydrochloride): 0
- Mean Number of Convulsions/Mouse (mice; 100 mg/kg, Moderate): 0.08
- Total Number of convulsions (mice; 100 mg/kg, Moderate): 1
- Mean Number of Convulsions/Mouse, cumulative (mice; 100 mg/kg, Severe + Moderate, hydrochloride): 0.23
- Mean Number of Convulsions/Mouse (mice; 100 mg/kg, Severe, 120 min observation, hydrochloride): 0.15
- Total Number of convulsions (mice; 100 mg/kg, Severe, hydrochloride): 2
- Mean Number of Convulsions/Mouse, cumulative (mice; 150 mg/kg, All, hydrochloride): 71.00
- Mean Number of Convulsions/Mouse (mice; 150 mg/kg, Mild, hydrochloride): 6.23
- Total Number of convulsions (mice; 150 mg/kg, Mild, hydrochloride): 81
- Mean Number of Convulsions/Mouse (mice; [4]): 8.69
- Total Number of convulsions (mice; [4]): 113
- Mean Number of Convulsions/Mouse, cumulative (mice; 150 mg/kg, Severe + Moderate, hydrochloride): 64.77
- Mean Number of Convulsions/Mouse (mice; [5]): 56.08
- Total Number of convulsions (mice; [5]): 729

Structure (SMILES): Br.CC(NC(C)(C)C)C(=O)c1cccc(Cl)c1 (stereo not drawn) [bupropion hydrobromide]
- reduction in the number of convulsant mice versus HCl salt (CD-1 mice; […] dose level, pooled data): 15.4%
- Mean Number of Convulsions/Mouse, cumulative (mice; 100 mg/kg, All): 0.77
- In water, 852U77: order of impurity content [1]: fumarate > HBr > maleate > HCl
- In water, Total imp.: order of impurity content [1]: fumarate > HBr > HCl > tosylate > maleate
- order of stability (assay, % potency) ([1]; closed vials): HBr>HCl≈tosylate>fumarate>maleate
- In IPA/EtOH, 3-CBZ: order of impurity content [1, 6]: maleate > HBr > HCl > Fumarate
- In IPA/EtOH, 852U77: order of impurity content [1, 6]: fumarate > HBr ≈HCl ≈maleate ≈tosylate
- In IPA/EtOH, Total imp.: order of impurity content [1, 6]: fumarate > maleate > HBr > HCl > tosylate
- In water, 3-CBZ: order of impurity content ([1]; spiked with water, closed vials, 32 days): HCl > HBr≈maleate≈fumarate

Reference: patent publication US7645802B2 (Biovail Laboratories International SRL., priority 2005, dated 2010)
